# Read-outs that look alike come from different tables or passages of the source.
# Legend:
# [1] = target: T1, Porcine pancreas α-amylase type VI (Sus scrofa, UniProt P00690); test: biochemical
# T1 construct: purchased Sigma-Aldrich
# T1 sequence (P00690 16-511): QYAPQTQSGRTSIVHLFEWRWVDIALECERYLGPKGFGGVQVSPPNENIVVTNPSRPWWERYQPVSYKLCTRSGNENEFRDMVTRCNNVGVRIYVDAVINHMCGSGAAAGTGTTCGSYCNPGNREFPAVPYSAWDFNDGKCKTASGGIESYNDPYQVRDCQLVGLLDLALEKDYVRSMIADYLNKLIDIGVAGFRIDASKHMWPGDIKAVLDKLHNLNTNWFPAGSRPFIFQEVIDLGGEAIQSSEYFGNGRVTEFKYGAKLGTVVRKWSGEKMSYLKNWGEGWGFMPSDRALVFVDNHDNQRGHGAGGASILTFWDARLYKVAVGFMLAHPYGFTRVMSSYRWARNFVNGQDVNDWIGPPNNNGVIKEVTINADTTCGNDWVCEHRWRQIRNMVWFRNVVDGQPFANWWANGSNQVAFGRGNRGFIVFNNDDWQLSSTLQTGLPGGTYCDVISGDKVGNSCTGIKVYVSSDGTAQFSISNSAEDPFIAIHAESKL
# Procedure: (§1) Soluble starch, sodium dihydrogenphosphate (NaH2PO4), sodium potassium tartrate and sodium chloride were purchased from Merck. Analytical grade solvents for extraction and HPLC grade solvents for chromatography were from Scharlau (Barcelona, Spain). HPLC grade water was obtained by an EASY-pure II (Barnstead, Dubuque IA, USA) water purification system. Deuterated solvents were purchased from Armar Chemicals (Döttingen, Switzerland).
# α-Amylase inhibition activity was assessed by a previously reported procedure with some modifications ([17]). […] Individual blanks were prepared to correct for the blank ground absorbance, where the enzyme was replaced with buffer as follows:
# Corrected absorbance of test sample = Absorbance of sample –absorbance of blank
# From the net absorbance obtained, the % (w/v) of maltose generated was calculated from the equation obtained from the maltose standard calibration curve (0–0.1%, w/v, maltose).
# Control incubations, representing 100% enzyme activity, were conducted in the same manner replacing the plant extract with DMSO. The percentage of α-amylase inhibition was calculated by the following equations:
# % reaction=mean of maltose in sample/mean of maltose in control×100
# % α-amylase inhibition activity= 100 - % reaction
# (§2) Statistical analyses were done using GraphPad Prism version 5.00 for Windows. Differences were evaluated by one-way analysis of variance (ANOVA) test completed by Tukey’s multicomparison test. Statistical signiﬁcance was declared at a p<0.05. All assays were performed at least in triplicate and the results were expressed as mean ± standard deviation (SD). IC50 values were determined by plotting a percent inhibition versus concentration curve for all assays.
# [2] = target: T2, α-glucosidase type I from Baker's Yeast (Saccharomyces cerevisiae, UniProt P53341); test: biochemical
# T2 construct: purchased Sigma-Aldrich
# Procedure: as §1
# The α-glucosidase inhibition was measured according to an earlier reported bioassay method ([18]). […] The mixed solution was incubated in 96-well plates at 37 °C for 15 min. After preincubation, the enzymatic reaction was initiated by adding 20 µL of 5 mM p-nitrophenyl-α-D-glucopyranoside solution in 0.1 M phosphate buffer (pH 6.9), and the reaction mixture was incubated for another 15 min at 37 °C. […] The reaction system without plant extracts was used as control and the system without α-glucosidase was used as blank for correcting the background absorbance. The inhibitory rate of sample on α-glucosidase was calculated by the following formula:
# % Inhibition=control absorbance-sample absorbance/control absorbance×100
# as §2
# [3] = isolated compounds, pH 6.8, 37 °C, 30 min, mean ± SD, read-out: α-amylase (IC50 µM)
# T2 sequence (P53341 whole entry): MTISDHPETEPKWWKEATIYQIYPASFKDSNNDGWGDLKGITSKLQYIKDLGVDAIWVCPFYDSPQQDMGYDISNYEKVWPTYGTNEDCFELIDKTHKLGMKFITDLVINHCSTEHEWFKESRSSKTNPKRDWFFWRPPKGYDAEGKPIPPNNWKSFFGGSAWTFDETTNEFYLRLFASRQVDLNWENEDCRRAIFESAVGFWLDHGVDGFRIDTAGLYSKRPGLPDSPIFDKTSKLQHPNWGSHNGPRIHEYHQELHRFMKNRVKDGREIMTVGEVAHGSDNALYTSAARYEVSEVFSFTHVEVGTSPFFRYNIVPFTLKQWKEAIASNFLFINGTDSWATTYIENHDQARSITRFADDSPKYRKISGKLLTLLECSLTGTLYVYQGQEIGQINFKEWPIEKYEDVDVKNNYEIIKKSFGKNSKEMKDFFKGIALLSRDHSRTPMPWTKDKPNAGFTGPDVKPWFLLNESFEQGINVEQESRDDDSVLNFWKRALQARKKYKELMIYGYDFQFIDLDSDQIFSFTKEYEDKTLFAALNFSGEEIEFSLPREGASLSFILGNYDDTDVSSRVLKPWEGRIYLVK
IC50 [1] [µM],"IC50 ([2]; isolated compounds, pH 6.9, 37 °C, mean ± SD, read-out: α-glucosidase (IC50 µM)) [µM]",SMILES,"IC50 [1, 3] [µM]",IC50 [2] [µM]
,,"O=c1cc(-c2ccc(O)c(O)c2)oc2cc(O[C@@H]3O[C@H](CO)[C@@H](O)[C@H](O)[C@H]3O)cc(O)c12 [Compound 1, luteolin 7-O-glucoside]",81.7 ± 2.3,18.3 ± 1.7
,,"O=C(O)[C@H]1O[C@@H](Oc2cc(O)c3c(=O)cc(-c4ccc(O)c(O)c4)oc3c2)[C@H](O)[C@@H](O)[C@@H]1O [Compound 2, luteolin 7-O-glucuronide]",61.5 ± 1.4,14.7 ± 2.1
,,"COc1ccc(-c2cc(=O)c3c(O)cc(O[C@@H]4O[C@H](C(=O)O)[C@@H](O)[C@H](O)[C@H]4O)cc3o2)cc1O [Compound 3, diosmetin 7-O-glucuronide]",76.3 ± 0.6,17.1 ± 1.9
> 100,> 50,"COc1ccc(-c2cc(=O)c3c(O)c(OC)c(OC)cc3o2)cc1 [Compound 4, salvigenin]",,

# Source: paper PMC4403079, “Flavonoids from Salvia chloroleuca with α-Amylsae and α-Glucosidase Inhibitory Effect” (Iranian Journal of Pharmaceutical Research : IJPR, 2015)
